A word on the inhibition: it is the drop in the measured response relative to a control, in per cent. Lower therefore signals little suppression. A word on the IC50: it is the midpoint of a concentration-inhibition curve.

Structures are written as SMILES.

One assay has as its system 5-HT1D. The assay is described as follows: 5-HT1D radioligand binding assay (3H-5HT, crude pig striatal membranes). Particulars: for % inhibition of binding, 5-HT1D: mean of triplicates. The protocol:
(§1) 5-HT1D radioligand binding assay was carried out according to Heuring and Peroutka (Heuring, R. E., and Peroutka, S. J., J. Neurosci., 7:894-903, 1987) with slight modifications as follows. Polypropylene tubes containing ^3 H-5HT (2 nM), cyanopindolol (100 nM), mesulergine (100 nM) and crude pig striatal membranes (10 mg wet weight per tube) in a final assay volume of 1 ml were used. All reagents and tissues were made up in […] Tris. HCl containing 0.1% ascorbate, 10 μM pargyline and 4 mM CaCl2 (pH 7.7 at room temperature). 5-HT (10 μM) was used to define non-specific binding. The incubation was initiated by the addition of membranes and carried out for 30 minutes at 37° C. Following incubation, membranes were rapidly filtered under vacuum through Whatmann GF/B filters using a Brandel Cell Harvester, followed by 2×3 ml washes with 50 mM Tris. HCl (pH 7.7 at room temperature). Bound radioactivity was determined by liquid scintillation spectrometry. 5-HT1A and 5-HT2 radioligand binding assays were performed according to Hall, et al., J. Neurochem., 44, 1685-1696, 1985 and Titeler, et al., Eur. J. Pharmacol., 117, 145-146, 1987, respectively.

The target in another assay is T1, 5-HT1A (Rattus norvegicus, UniProt P19327).
T1 construct: from tissue
T1 sequence (P19327 1-422): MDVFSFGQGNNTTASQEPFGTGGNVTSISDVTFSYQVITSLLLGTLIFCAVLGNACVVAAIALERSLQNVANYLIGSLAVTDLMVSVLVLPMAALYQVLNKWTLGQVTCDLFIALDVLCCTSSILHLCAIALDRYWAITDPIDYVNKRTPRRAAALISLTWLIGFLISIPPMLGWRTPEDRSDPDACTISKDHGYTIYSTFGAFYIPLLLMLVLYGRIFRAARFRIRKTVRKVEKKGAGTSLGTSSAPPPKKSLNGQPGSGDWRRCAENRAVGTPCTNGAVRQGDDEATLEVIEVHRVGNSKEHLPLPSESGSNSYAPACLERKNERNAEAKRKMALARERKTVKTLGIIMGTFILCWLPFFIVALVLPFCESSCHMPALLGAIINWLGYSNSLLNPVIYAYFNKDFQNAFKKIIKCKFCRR
The assay is described as follows: 5-HT1A radioligand binding assay. The protocol: as §1

In a further assay the target is T2, 5-HT2 (Rattus norvegicus, UniProt P14842).
T2 construct: from tissue; host or cells: rat cortical membranes (inferred from the cited Titeler et al)
T2 sequence (P14842 whole entry): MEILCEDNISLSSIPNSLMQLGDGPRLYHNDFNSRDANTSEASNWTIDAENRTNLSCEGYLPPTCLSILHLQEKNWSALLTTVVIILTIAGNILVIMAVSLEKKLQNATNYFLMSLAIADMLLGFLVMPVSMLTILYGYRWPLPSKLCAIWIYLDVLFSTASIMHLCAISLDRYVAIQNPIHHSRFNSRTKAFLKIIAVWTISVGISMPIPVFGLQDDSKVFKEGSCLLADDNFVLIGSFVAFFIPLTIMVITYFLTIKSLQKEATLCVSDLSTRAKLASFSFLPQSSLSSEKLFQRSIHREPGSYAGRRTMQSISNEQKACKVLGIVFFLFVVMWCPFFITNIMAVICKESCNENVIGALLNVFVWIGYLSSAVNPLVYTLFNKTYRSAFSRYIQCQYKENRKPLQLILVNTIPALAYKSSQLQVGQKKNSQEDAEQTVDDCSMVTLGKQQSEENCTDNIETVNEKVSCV
The assay can be described thus: 5-HT2 radioligand binding assay. To be noted: mean of triplicates. The protocol: as §1

Regarding `C=CC(C)(C)n1cc(CN(C)C)c2ccccc21` [Compound I, 1-(1,1-dimethylallyl)-3-dimethylaminomethylindole], the “% inhibition of binding, 5-HT1D” value in the assay on 5-HT1D (4.1 μM) was found to be 44%; in the assay with 5-HT1D (41 μM), 81%. Moreover, the inhibition at 4.1 µM on 5-HT1A (4.1 μM, mean of triplicates) is 20%; at 5-HT2 (4.1 μM), 42%. The inhibition at 41 µM on 5-HT1A (41 μM, mean of triplicates) was determined as 62%; on 5-HT2 (41 μM) it was 86%. In addition, on 5-HT1A (5-HT1A versus 5-HT1D and 5-HT2), the “affinity for 5-HT1A relative to 5-HT1D and 5-HT2” value was “less affinity for 5-HT1A than for 5-HT1D and 5-HT2 receptor subtypes”.

In the case of `CNS(=O)(=O)Cc1ccc2[nH]cc(CCN(C)C)c2c1` [sumatriptan, reference compound], the “rank order of affinity for these subtypes” value in the assay on 5-HT1D (5-HT1D, 5-HT1A, 5-HT2, for comparison) is 5-HT1D >5-HT1A >5-HT2. In addition, the “pIC50, 5-HT1D” value on 5-HT1D (for comparison) amounted to 7.7. In addition, the IC50 on 5-HT1A is 501 nM.

(Values after patent publication US5233050A, “Antimigraine alkyl indole” (Merck & Co., Inc., priority 1992, dated 1993).)
